Key:
U-937 [1] = experiment: Cytotoxicity against human U937 cells assessed as decrease in cell viability after 44 hrs by MTT assay; type: functional, cell-based; conditions: u-937
U-937 [2] = experiment: Cytotoxicity against human U937 cells assessed as cell viability at 6.4 x 10^-5 M after 44 hrs by MTT assay relative to control; type: functional; conditions: U-937, 44 h, read-out: Activity
U-937 [3] = experiment: Cytotoxicity against human U937 cells assessed as cell viability at 3.2 x 10^-5 M after 44 hrs by MTT assay relative to control; type: functional; conditions: U-937, 44 h, read-out: Activity
U-937 [4] = experiment: Cytotoxicity against human U937 cells assessed as cell viability at 1.6 x 10^-5 M after 44 hrs by MTT assay relative to control; type: functional; conditions: U-937, 44 h, read-out: Activity
U-937 [5] = experiment: Cytotoxicity against human U937 cells assessed as cell viability at 8 x 10^-6 M after 44 hrs by MTT assay relative to control; type: functional; conditions: U-937, 44 h, read-out: Activity
U-937 [6] = experiment: Cytotoxicity against human U937 cells assessed as cell viability at 4 x 10^-6 M after 44 hrs by MTT assay relative to control; type: functional; conditions: U-937, 44 h, read-out: Activity
U-937 [7] = experiment: Cytotoxicity against human U937 cells assessed as cell viability at 2 x 10^-6 M after 44 hrs by MTT assay relative to control; type: functional; conditions: U-937, 44 h, read-out: Activity
Jurkat [8] = experiment: Cytotoxicity against human Jurkat cells assessed as cell viability at 1 uM after 44 hrs by MTT assay relative to control; type: functional; conditions: read-out: Activity
Jurkat [9] = experiment: Cytotoxicity against human Jurkat cells assessed as cell viability at 10 uM after 44 hrs by MTT assay relative to control; type: functional; conditions: read-out: Activity

`CCCCC(CCCC(=O)Nc1ccccc1)CCC(=O)NO` (centres undefined) gave an EC50 (U-937 [1]) of 34 µM, a viability at 64 µM (U-937 [2]) of 24% and a viability at 32 µM (U-937 [3]) of 54%. It also gave a viability at 16 µM (U-937 [4]) of 80%, a viability at 8 µM (U-937 [5]) of 87% and a viability at 4 µM (U-937 [6]) of 100%. It also gave a viability at 2 µM (U-937 [7]) of 100%, a viability at 1 µM (Jurkat [8]) of 98% and a viability at 10 µM (Jurkat [9]) of 62%.

From ChEMBL document CHEMBL4251567 (Eur J Med Chem, 2018)
